Laboratory results: ChEMBL document CHEMBL1126249, “Synthesis and antiviral activity of deoxy analogs of 1-[(2-hydroxyethoxy)methyl]-6-(phenylthio)thymine (HEPT) as potent and selective anti-HIV-1 agents” (J Med Chem, 1992)

What was measured:
[1] = tested on: Human immunodeficiency virus 1; experiment: Effective concentration required for 50% protection of MT-4 cells against the cytopathic effect of HIV-1; type: functional, organism-based; settings: Human immunodeficiency virus 1, MT4
MT4 [2] = experiment: Ratio of the EC50 against HIV-1 infected MT-4 cells and CC50 against mock infected MT-4 cells.; type: functional
[3] = Concentration required to reduce viability of mock-infected MT-4 cells; type: functional; settings: Homo sapiens, MT4
MT4 [4] = experiment: Concentration required to inhibit replication of HIV-2 LAV-2rod strain in MT-4 cells; type: functional, cell-based; settings: Homo sapiens
MT4 [5] = experiment: Cytotoxicity to required to reduce viability of Mock infected MT-4 cells of LAV-2rod strain against HIV-2 replication; type: functional; settings: Homo sapiens
[6] = Concentration required to reduce viability of Mock infected PBL (peripheral blood lymphocytes) cells.; type: functional; settings: Homo sapiens
[7] = Concentration required to inhibit replication of HIV-1 HTLV-IIIB strain in PBL (peripheral blood lymphocytes) cells; type: functional, cell-based; settings: Homo sapiens
MT4 [8] = experiment: Concentration to required to reduce viability of Mock infected MT-4 cells; type: functional; settings: Homo sapiens

Structure (SMILES)	EC50 [1] [µM]	Selectivity index (MT4 [2])	CC50 [3] [µM]	EC50 (MT4 [4]) [µM]	CC50 (MT4 [5]) [µM]	CC50 [6] [µM]	EC50 [7] [µM]	CC50 (MT4 [8]) [µM]
CCOCn1c(Sc2ccccc2)c(C2CC2)c(=O)[nH]c1=S	0.095	484	46	–	–	–	–	–
CCOCn1c(Sc2cc(Cl)cc(Cl)c2)c(CC)c(=O)[nH]c1=O	0.0074	6080	45	–	–	–	–	–
CCc1c(Sc2ccccc2)n(COCCc2ccccc2)c(=S)[nH]c1=O	0.091	>220	> 20	–	–	–	–	–
CCOCn1c(Sc2cc(C)cc(C)c2)c(CC)c(=O)[nH]c1=O	0.0054	>18500	> 100	> 100	> 100	56	0.0018	–
Cc1c(O)nc(O)nc1Sc1ccccc1	> 250	<1	250	–	–	–	–	–
CCc1c(Sc2ccccc2)n(COCc2ccc(Cl)cc2)c(=S)[nH]c1=O	0.012	>1670	> 20	–	–	–	–	–
CCc1c(Sc2ccccc2)n(COC2CCCCC2)c(=S)[nH]c1=O	1.6	139	223	–	–	–	–	–
CCc1c(Sc2cc(C)cc(C)c2)n(COCc2ccccc2)c(=S)[nH]c1=O	0.0069	>2900	> 20	–	–	–	–	–
CCc1c(Sc2ccccc2)n(COCc2ccccc2)c(=O)[nH]c1=O	0.0059	5800	–	> 30	–	43	0.0015	30
CCOCn1c(Sc2ccccc2)c(CC)c(=O)[nH]c1=S	0.026	3120	81	> 50	–	35	0.013	50
CCc1c(Sc2ccccc2)n(COCc2ccc(C)cc2)c(=S)[nH]c1=O	0.078	>256	> 20	–	–	–	–	–
COCn1c(Sc2ccccc2)c(C)c(=O)[nH]c1=O	2.1	116	244	–	–	–	–	–
CCc1c(Sc2cc(C)cc(C)c2)n(COCc2ccccc2)c(=O)[nH]c1=O	0.0032	>6250	> 20	–	–	–	–	–
CCOCn1c(Sc2ccccc2)c(C)c(=O)[nH]c1=O	0.33	700	–	–	–	–	–	–
CCc1c(Sc2ccccc2)n(COC2CCCCC2)c(=O)[nH]c1=O	4	>25	> 100	–	–	–	–	–
Cc1c(Sc2ccccc2)n(COCCOCc2ccccc2)c(=O)[nH]c1=O	> 20	2.3	–	–	–	–	–	–
CCn1c(Sc2ccccc2)c(C)c(=O)[nH]c1=O	2.2	43	94	–	–	–	–	–
COCCOCn1c(Sc2ccccc2)c(C)c(=O)[nH]c1=O	8.7	34	–	–	–	–	–	–
CCc1c(Sc2ccccc2)n(COCC2CCCCC2)c(=S)[nH]c1=O	0.35	>286	> 100	–	–	–	–	–
Cc1cn([C@H]2C[C@H](N=[N+]=[N-])[C@@H](CO)O2)c(=O)[nH]c1=O [ZIDOVUDINE]	–	2600	–	0.0028	–	26	0.0014	7.8

Structure (SMILES)	EC50 [1] [µM]	Selectivity index (MT4 [2])	CC50 [3] [µM]	EC50 (MT4 [4]) [µM]	CC50 (MT4 [5]) [µM]	CC50 [6] [µM]	EC50 [7] [µM]	CC50 (MT4 [8]) [µM]
CCOCn1c(Sc2ccccc2)c(C(C)C)c(=O)[nH]c1=S	0.014	>7140	> 100	–	–	–	–	–
CCc1c(Sc2ccccc2)n(COC(C)C)c(=O)[nH]c1=O	0.34	421	143	–	–	–	–	–
CCc1c(Sc2ccccc2)n(COCC2CCCCC2)c(=O)[nH]c1=O	0.45	38	17	–	–	–	–	–
Cc1c(Sc2ccccc2)n(COCc2ccccc2)c(=O)[nH]c1=O	0.088	1080	–	–	–	–	–	–
CCOCn1c(Sc2cc(C)cc(C)c2)c(CC)c(=O)[nH]c1=S	0.0044	>22700	> 100	> 100	–	33	0.0022	> 100
CC(C)c1c(Sc2ccccc2)n(COCc2ccccc2)c(=S)[nH]c1=O	0.0068	>2940	> 20	–	–	–	–	–
CCCOCn1c(Sc2ccccc2)c(C)c(=O)[nH]c1=O	3.6	41	147	–	–	–	–	–
CCc1c(Sc2ccccc2)n(CC(C)C)c(=S)[nH]c1=O	0.22	>455	> 100	–	–	–	–	–
CCOCn1c(Sc2ccccc2)c(C(C)C)c(=O)[nH]c1=O	0.012	8830	106	–	–	–	–	–
Cc1c(Sc2ccccc2)n(COCC[Si](C)(C)C)c(=O)[nH]c1=O	> 32	<1	32	–	–	–	–	–
CCCCOCn1c(Sc2ccccc2)c(C)c(=O)[nH]c1=O	4.7	18	83	–	–	–	–	–
CCc1c(Sc2ccccc2)n(COCc2ccccc2)c(=S)[nH]c1=O	0.0078	>12800	> 100	> 100	–	28	0.0037	> 100
CCOCn1c(Sc2ccccc2)c(CC)c(=O)[nH]c1=O	0.019	8500	–	> 146	–	93	0.011	146
CCCCn1c(Sc2ccccc2)c(C)c(=O)[nH]c1=O	1.2	74	89	–	–	–	–	–
CCOCn1c(Sc2cc(Cl)cc(Cl)c2)c(CC)c(=O)[nH]c1=S	0.013	3460	45	–	–	–	–	–
Cc1c(Sc2ccccc2)n(C)c(=O)[nH]c1=O	> 150	<1	150	–	–	–	–	–
CCOCn1c(Sc2ccccc2)c(C2CC2)c(=O)[nH]c1=O	0.1	2240	224	–	–	–	–	–
CCCCCOCCOCn1c(Sc2ccccc2)c(C)c(=O)[nH]c1=O	> 55	<1	55	–	–	–	–	–
CC(C)c1c(Sc2ccccc2)n(COCc2ccccc2)c(=O)[nH]c1=O	0.0027	>7410	> 20	–	–	–	–	–
CCc1c(Sc2ccccc2)n(COCCc2ccccc2)c(=O)[nH]c1=O	0.096	396	38	–	–	–	–	–
